Laboratory results published in patent US20250304623A1, “PEPTIDES FOR INTRACELLULAR DELIVERY” (UNIVERSIDADE DE SANTIAGO DE COMPOSTELA, priority 2022, published 2025).
Starred links: 1 amine or outer side, 2 acyl side, 3 side chain; linkers in the order of their positions; H or OH if unused. Residues, ends and D or L forms follow the SMILES beside them. Groups on a side chain read outwards from the residue. *: point of attachment. Glutaryl = O=C(CCCC(=O)[*:2])[*:1]; NHNH2 = NN*

Assays:
Assay type in all cases: cell-based
Hela cells = assay: EGFP mRNA delivery, robotic library screening, HeLa
Description: Cells were seeded in a 96 well plate the day before the experiment at a concentration of 50,000 cell/mL (100 μL/w) in DMEM+10% FBS+1% Gln-Abt. For robotic library screening, the delivery of EGFP-mRNA (from TriLink, fully substituted with 5-methoxyuridine, capped and polyadenylated; TriLink, CleanCap® EGFP mRNA (5moU), ref. L-7201) in six different cell lines was performed. Amphiphilic molecule stock solutions were prepared in DMSO as described above and diluted in DMEM to afford a range of concentrations. The solutions of EGFP-mRNA/amphiphilic molecule complexes were freshly prepared prior to the transfection experiments. 35 μL of the corresponding amphiphile were added to 10 μL of a solution of EGFP-mRNA at 10 ng/μL in DMEM. The mixture was shaken for 30 min at room temperature before the addition to the cells. The cell medium was aspirated, and cells were washed with PBS twice. Cells were covered with 39 μL of DMEM and 11 μL of the complex's solution were added to the cells and incubated for 4 h (final concentration of peptide=2.5, 5 and 10 μM; final concentration of EGFP-mRNA=25 ng/well). After the incubation, the medium was replaced by 100 μL of fresh DMEM supplemented with 10% FBS. The total EGFP fluorescence was quantified after 72 h in a well plate reader. Amphiphile transfection efficiency was compared and normalized to Lipofectamine® MessengerMax efficiency (value of 1 in Tables 1-5 and 7; double underlined numbers). All experiments were done in triplicate.
(§1) Tables 1-7: RLuc (pDNA) or EGFP (mRNA) expression levels were normalized to Lipofectamine reagents (value=1) and expressed as fold-times signal increase. In the case of siRNA, the siRNA treated cells fluorescence was compared with siMOCK control fluorescence, while Cas9-RNP mediated knockout was measured against the fluorescence of untreated cells. In both siRNA and Cas9-RNP, values are expressed as % fluorescence reduction. Amphiphile concentration was 5 μM in all cases. All experiments were performed in triplicate.
Tables 14-19 show the mean (triplicates) fluorescence intensity measured after the transfection of EGFP mRNA by different amphiphiles at different concentrations in a variety of cell lines. Background fluorescence values, accounted by untreated control cells, were subtracted for processing.

[1] = system: HepG2 cells expressing EGFP; assay: EGFP-targeting siRNA delivery (GFP silencing vs siMOCK), HepG2
Description: (§2) To generate an EGFP expressing HeLa cell line, HeLa cells were transfected with EGFP pDNA (pEGFP-C1, Clontech) and stable transfectants were selected with 400 μg/mL of G-418 (Millipore). Green clones were selected by epifluorescence microscopy and tested for EGFP expression stability through several passages. […] All other EGFP-expressing cell lines were obtained in a similar way from parent non-EGFP-expressing cell lines.
Cells expressing EGFP were seeded in a 96 well plate the day before the experiment at a concentration of 50,000 cell/mL (100 μL/w) in DMEM+10% FBS+1% Gln-Abt. For robotic library screening, the delivery of an EGFP-targeting siRNA (EGFP: enhanced green fluorescent protein, Ambion® Silencer® GFP Positive Control siRNA (siGFP) (AM4626)) in six different cell lines expressing EGFP was performed. […] The mixture was shaken for 30 min at room temperature (rt) before the addition to the cells. The cell medium was aspirated, and cells were washed twice with PBS. Finally, 50 μL of the solution of siRNA/amphiphile complexes were added to the cells and incubated for 4 h. After transfection, the medium was replaced by 100 μL of fresh DMEM supplemented with 10% FBS. The fluorescence knockdown was quantified after 72 h in a plate reader, by comparison with cells transfected with a non-targeting siRNA control (siMOCK, Silencer™ Negative Control No. 1 siRNA (siMOCK) (AM4611)). EGFP knockdown was compared with Lipofectamine® RNAiMAX silencing efficiency (30-60% depending on cell line, defined with a numeric value in the below tables). All experiments were done in triplicate.
as §1
Tables 20-25 show the mean (triplicates) percentage of GFP-silencing, accounted by fluorescence intensity decrease relative to a non-targeting siRNA (siMOCK) control, measured after the transfection of siRNA by different amphiphiles at different concentrations in a variety of cell lines. Background values, accounted by untreated control cells, were subtracted for processing.

[2] = system: Hek293 cells expressing EGFP; assay: Cas9-RNP delivery against EGFP (gene editing, plate reader), Hek293
Description: as §2
Cells expressing EGFP were seeded in a 96 well plate the day before the experiment at a concentration of 50,000 cell/mL (100 μL/w) in DMEM+10% FBS+1% Gln-Abt. For robotic library screening, the delivery of Cas9-RNP against EGFP (RNP designed to knock-out the gene encoding for the enhanced green fluorescent protein (EGFP)) was performed. For RNP assembly, 9.2 μL of crRNA and 9.2 μL of tracrRNA were mixed in 211.6 μL of Nuclease-Free Duplex Buffer (IDT), incubated for 5 min at 95° C. and slowly cooled at rt (see I. Lostalé-Seijo, et al. Peptide/Cas9 nanostructures for ribonucleoprotein cell membrane transport and gene edition, Chem. Sci., 2017). Cas9 protein was dissolved in DMEM at a final concentration of 4 μM and equal volumes of the RNA complex and Cas9 were mixed and incubated for 5 min at rt. 75 μL of the corresponding amphiphile concentrations were added to 5 μL of RNP at 2 μM. The mixture was shaken for 30 min at room temperature before the addition to the cells. The cell medium was aspirated, and cells were washed twice with PBS. Cells were covered with 30 μL of DMEM and 20 μL of the RNP/amphiphile complexes were added to the cells (final peptide concentrations=2.5, 5 and 10 μM; final Cas9-RNP concentration=50 nM) and incubated for 4 h. After the incubation, the medium was replaced by 100 μL of fresh DMEM supplemented with 10% FBS. The total EGFP fluorescence was quantified after 72 h in a plate reader (FIG. 2, Table 1 (right) and Table 6). All experiments were done in triplicate. […]
Tables 26-31 show the mean (triplicates) percentage of gene editing, accounted by GFP fluorescence intensity decrease (% of reduction), measured after the transfection of Cas9-RNP by different amphiphiles at different concentrations in a variety of cell lines. Background values, accounted by untreated control cells, were subtracted for processing.

Molecule	mean fluorescence intensity (EGFP mRNA) (Hela cells; HeLa, Myristoleyl, 2.5 μM)	mean fluorescence intensity (EGFP mRNA) (Hela cells; HeLa, Palmitoleyl, 2.5 μM)	mean fluorescence intensity (EGFP mRNA) (Hela cells; HeLa, Petroselinyl, 2.5 μM)	mean fluorescence intensity (EGFP mRNA) (Hela cells; HeLa, Petroselinyl, 10 μM)	mean fluorescence intensity (EGFP mRNA) (Hela cells; Hela, Petroselinyl, 5 μM)	percentage of gene editing, GFP fluorescence intensity decrease (% of reduction) ([2]; Myristoleyl, 5 μM) [%]	percentage of gene editing, GFP fluorescence intensity decrease (% of reduction) ([2]; Oleyl, 10 μM) [%]	percentage of gene editing, GFP fluorescence intensity decrease (% of reduction) ([2]; Oleyl, 15 μM) [%]	percentage of gene editing, GFP fluorescence intensity decrease (% of reduction) ([2]; Palmitoleyl, 5 μM) [%]	percentage of gene editing, GFP fluorescence intensity decrease (% of reduction) ([2]; Palmitoleyl, 10 μM) [%]	percentage of gene editing, GFP fluorescence intensity decrease (% of reduction) ([2]; Palmitoleyl, 15 μM) [%]	percentage of gene editing, GFP fluorescence intensity decrease (% of reduction) ([2]; Petroselinyl, 5 μM) [%]	percentage of GFP-silencing relative to siMOCK ([1]; Palmitoleyl, 10 μM) [%]	percentage of GFP-silencing relative to siMOCK ([1]; Petroselinyl, 5 μM) [%]	percentage of gene editing, GFP fluorescence intensity decrease (% of reduction) ([2]; Dodecanal, 5 μM) [%]	percentage of gene editing, GFP fluorescence intensity decrease (% of reduction) ([2]; Petroselinyl, 10 μM) [%]	percentage of gene editing, GFP fluorescence intensity decrease (% of reduction) ([2]; Petroselinyl, 15 μM) [%]	further results
CC(=O)N[C@@H](CCCNC(=N)N)C(=O)N[C@@H](CCCCNC(=O)CCCC(=O)NN)C(=O)N[C@@H](Cc1c[nH]cn1)C(=O)N[C@@H](CCCNC(=N)N)C(=O)N[C@@H](CCCCNC(=O)CCCC(=O)NN)C(=O)N[C@@H](CCCCNC(=O)CCCC(=O)NN)C(=O)N[C@@H](Cc1c[nH]cn1)C(N)=O [7.3(L-H), Ac-RK*HRK*K*H-NH2] (Ac-RK([Glutaryl-NHNH2])HRK([Glutaryl-NHNH2])K([Glutaryl-NHNH2])H-NH2)	30978	46778	15046	2234	28395	−6	6	0	23	−5	−2	1	–	–	–	–	–	mean fluorescence intensity (EGFP mRNA) (Hela cells; HeLa, Oleyl, 2.5 μM): 13495; mean fluorescence intensity (EGFP mRNA) (Hela cells; HeLa, Oleyl, 5 μM): 16633; mRNA delivery relative to Lipofectamine MessengerMAX (Hela cells; HeLa, myristoleyl, palmitoleyl or petroselinyl aldehydes): between two and three times better; mean fluorescence intensity (EGFP mRNA) (Hela cells; Hela, Myristoleyl, 5 μM): 3346; mean fluorescence intensity (EGFP mRNA) (Hela cells; Hela, Palmitoleyl, 5 μM): 21109; mean fluorescence intensity (EGFP mRNA) (Hela cells; Hela, Palmitoleyl, 10 μM): 1577; percentage of GFP-silencing relative to siMOCK ([1]; Myristoleyl, 15 μM): −13%; percentage of GFP-silencing relative to siMOCK ([1]; Oleyl, 10 μM): −9%; percentage of GFP-silencing relative to siMOCK ([1]; Palmitoleyl, 15 μM): 10%; percentage of GFP-silencing relative to siMOCK ([1]; Petroselinyl, 15 μM): 1%; percentage of gene editing, GFP fluorescence intensity decrease (% of reduction) ([2]; Oleyl, 5 μM): −5%
Ac-RHLK*RHK*RRLK*RH-NH2 (Ac-RHLKRHKRRLKRH-NH2; not fully specified (residues 4, 7, 11); printed as Ac-RHLK*RHK*RRLK*RH-NH2; also: linker on K* not given here) [13(3His)]	621	–	640	178	208	−13	–	–	−16	–	−47	21	6	−1	−4	4	−13	percentage of GFP-silencing relative to siMOCK ([1]; Myristoleyl, 10 μM): 8%; percentage of GFP-silencing relative to siMOCK ([1]; Petroselinyl, 10 μM): 19%
Ac-RHLK*RLK*RRLK*RL-NH2 (Ac-RHLKRLKRRLKRL-NH2; not fully specified (residues 4, 7, 11); printed as Ac-RHLK*RLK*RRLK*RL-NH2; also: linker on K* not given here) [13(Arg-His)]	–	578	360	−15	135	–	−8	−8	1	5	−26	8	30	21	21	−19	−44	percentage of gene editing, GFP fluorescence intensity decrease (% of reduction) ([2]; Myristoleyl, 15 μM): −75%
